Tested on: Escherichia coli
Experiment: Antimicrobial activity test: rate of inhibition of E. coli proliferation (turbidity)
Assay type: cell-based
Settings: 16 hours at 37° C.
Experimental: One platinum loop was collected from a stock slant of Escherichia coli, streaked on a standard agar medium (manufactured by Nissui Pharmaceutical Co.) and incubated under aerobic conditions for 16 hours at 37° C., the colonies which grew on the surface of the standard agar medium were collected using a platinum loop, suspended in sterilized physiological saline solution, the turbidity was measured using a spectrophotometer (manufactured by Hitachi Manufacturing Co.) and adjusted to 0.1 (O.D.; 660 nm) and a pre-incubation solution was prepared.
Bactocasitone (manufactured by Difco Laboratory Co.) was dissolved at a concentration of 1% in purified water, the pH was adjusted to 7.0 with 1M sodium hydroxide, the solution was sterilized at 115° C. for 15 minutes and a basal medium (liquid medium) was prepared. […]
The percentages of the rate of inhibition of proliferation are not in weight (same hereinafter).

Trp-Gln-Trp-Arg (WQWR) [Sample No. 7]
inhibitory rate (rate of inhibition of proliferation) (added quantity 0.5 μM): 0% | inhibitory rate (rate of inhibition of proliferation) (added quantity 1 μM): 21% | inhibitory rate (rate of inhibition of proliferation) (added quantity 2 μM): 68% | inhibitory rate (rate of inhibition of proliferation) (added quantity 5 μM): 83% | inhibitory rate (rate of inhibition of proliferation) (added quantity 10 μM): 95% | inhibitory rate (rate of inhibition of proliferation) (added quantity 20 μM): 100% | inhibitory rate (rate of inhibition of proliferation) (added quantity 60 μM): 100% | inhibitory rate (rate of inhibition of proliferation) (added quantity 100 μM): 100% | inhibitory rate (rate of inhibition of proliferation) (added quantity 200 μM): 100%

Reference: US5424396A, “Antimicrobial peptide and antimicrobial agent” (Morinaga Milk Industry Co., Ltd., priority 1991, dated 1995)
